This note sets out measurements from US20260152502A1, “PIPERIDINYL-METHYL-PURINE AMINE SALTS, CRYSTALLINE FORMS, AND THEIR USE IN TREATING MEDICAL DISEASES AND CONDITIONS” (K36 THERAPEUTICS, INC., priority 2022, published 2026).

Assay type in all cases: physicochemical
Data set [1] in a line: hygroscicity by dynamic vapor sorption. To be noted: transitioned from 5% to 95% relative humidity. As for the experimental part: Dynamic vapor sorption was performed using a Q5000SA. The sample (5-15 mg) was loaded into a metallic quartz sample pan, suspended from a microbalance, and exposed to a humidified stream of nitrogen gas. Weight changes were relative to a matching empty reference pan opposite the sample, suspended from the microbalance. The sample was held for a minimum of 10 min at each humidity level and only progressed to the next humidity level if there was <0.002% change in weight between measurements (interval: 5 s) or 45 min had elapsed (for 5-65% RH) or 2 hours had elapsed (for 80 and 95% RH). The following program was used: • 1. Equilibration at 50% RH • 2. 50% to 5% (50%, 35%, 20%, and 5%) • 3. 5% to 95% (5%, 20%, 35%, 50%, 65%, 80%, and 95%) • 4. 95% to 5% (95%, 80%, 65%, 50%, 35%, 20%, and 5%) • 5. 5% to 50% (5%, 20%, 35%, and 50%).
The crystalline solid was analyzed for hygroscopicity.

Data set [2] in a line: accelerated stability study (75% relative humidity, 40° C., one week). The following applies: one week at 75% relative humidity. As for the experimental part:
An accelerated stability study was conducted on the crystalline solid. Approximately 10 mg of crystalline solid was placed into a 4 mL vial, and the vial was covered with a Kimwipe. The vial was stored for one week inside a stability chamber producing a relative humidity of 75% at 40° C.

A short description of data set [3]: water solubility of the crystalline solid. The following applies: pH 7.0 (phosphate buffer), 37° C., after 30 minutes.

For the substance “Maleic Acid Salt of (S)-1-((R)-3-amino-1-(4-((6-amino-9H-purin-9-yl)methyl)-6-(2,5-difluoro-4-methoxyphenyl)pyridin-3-yl)piperidin-3-yl)-2,2-difluoroethan-1-ol [Example 1]”, in data set [1], the “increase in weight by dynamic vapor sorption” value stood at 0.507%. The “change of crystalline form by XRPD after the stability study” value in data set [2] is reported as “no change of the crystalline form”. Besides, in data set [2] (99.59 area percent before the study), the “HPLC purity after the stability study” value came out at 99.56 area percent.

For the substance “p-Toluenesulfonic Acid Salt of (S)-1-((R)-3-amino-1-(4-((6-amino-9H-purin-9-yl)methyl)-6-(2,5-difluoro-4-methoxyphenyl)pyridin-3-yl)piperidin-3-yl)-2,2-difluoroethan-1-ol [Example 3]”, the “water solubility (mg/mL of the free base (S)-1-((R)-3-amino-1-(...)piperidin-3-yl)-2,2-difluoroethan-1-ol)” value in data set [3] stood at 1.61 mg/mL.
